± gives the expanded uncertainty stated by the source.
Settings: Liquid, Vibrating tube method

## CCCC[n+]1ccn(C)c1.O=S(=O)([N-]S(=O)(=O)C(F)(F)F)C(F)(F)F
293.15 K, 100 kPa
  mass density: 1441.8 ± 12 kg/m3
293.15 K, 101.33 kPa
  mass density: 1441.34 ± 12 kg/m3
293.15 K, 250 kPa
  mass density: 1441.9 ± 12 kg/m3
293.15 K, 500 kPa
  mass density: 1442.1 ± 12 kg/m3
293.15 K, 1000 kPa
  mass density: 1442.4 ± 12 kg/m3
293.15 K, 2000 kPa
  mass density: 1443.2 ± 12 kg/m3
293.15 K, 4990 kPa
  mass density: 1445.4 ± 12 kg/m3
293.15 K, 10000 kPa
  mass density: 1449 ± 12 kg/m3
293.15 K, 15000 kPa
  mass density: 1452.5 ± 12 kg/m3
293.15 K, 20000 kPa
  mass density: 1456 ± 12 kg/m3
293.15 K, 25010 kPa
  mass density: 1459.3 ± 12 kg/m3
293.15 K, 30000 kPa
  mass density: 1462.6 ± 12 kg/m3
293.15 K, 35000 kPa
  mass density: 1465.8 ± 12 kg/m3
293.15 K, 40000 kPa
  mass density: 1469.1 ± 12 kg/m3
293.15 K, 45000 kPa
  mass density: 1472.2 ± 12 kg/m3
293.15 K, 50000 kPa
  mass density: 1475.3 ± 12 kg/m3
293.15 K, 55000 kPa
  mass density: 1478.3 ± 12 kg/m3
293.15 K, 59970 kPa
  mass density: 1481.3 ± 12 kg/m3
294.15 K, 101.33 kPa
  mass density: 1440.37 ± 12 kg/m3
295.15 K, 101.33 kPa
  mass density: 1439.4 ± 12 kg/m3
296.15 K, 101.33 kPa
  mass density: 1438.43 ± 12 kg/m3
297.15 K, 101.33 kPa
  mass density: 1437.46 ± 12 kg/m3
298.15 K, 101.33 kPa
  mass density: 1436.5 ± 12 kg/m3
299.15 K, 101.33 kPa
  mass density: 1435.53 ± 12 kg/m3
300.15 K, 101.33 kPa
  mass density: 1434.57 ± 11 kg/m3
301.15 K, 101.33 kPa
  mass density: 1433.61 ± 11 kg/m3
302.15 K, 101.33 kPa
  mass density: 1432.64 ± 11 kg/m3
303.15 K, 100 kPa
  mass density: 1432.3 ± 12 kg/m3
303.15 K, 101.33 kPa
  mass density: 1431.69 ± 11 kg/m3
303.15 K, 250 kPa
  mass density: 1432.4 ± 12 kg/m3
303.15 K, 500 kPa
  mass density: 1432.6 ± 12 kg/m3
303.15 K, 1000 kPa
  mass density: 1432.9 ± 12 kg/m3
303.15 K, 2000 kPa
  mass density: 1433.7 ± 12 kg/m3
303.15 K, 5000 kPa
  mass density: 1436 ± 12 kg/m3
303.15 K, 10000 kPa
  mass density: 1439.7 ± 12 kg/m3
303.15 K, 15000 kPa
  mass density: 1443.3 ± 12 kg/m3
303.15 K, 20000 kPa
  mass density: 1446.8 ± 12 kg/m3
303.15 K, 25000 kPa
  mass density: 1450.2 ± 12 kg/m3
303.15 K, 30000 kPa
  mass density: 1453.6 ± 12 kg/m3
303.15 K, 34990 kPa
  mass density: 1456.9 ± 12 kg/m3
303.15 K, 40000 kPa
  mass density: 1460.2 ± 12 kg/m3
303.15 K, 45010 kPa
  mass density: 1463.4 ± 12 kg/m3
303.15 K, 50000 kPa
  mass density: 1466.5 ± 12 kg/m3
303.15 K, 54990 kPa
  mass density: 1469.6 ± 12 kg/m3
303.15 K, 60010 kPa
  mass density: 1472.7 ± 12 kg/m3
304.15 K, 101.33 kPa
  mass density: 1430.73 ± 11 kg/m3
305.15 K, 101.33 kPa
  mass density: 1429.77 ± 11 kg/m3
306.15 K, 101.33 kPa
  mass density: 1428.82 ± 11 kg/m3
307.15 K, 101.33 kPa
  mass density: 1427.86 ± 11 kg/m3
308.15 K, 101.33 kPa
  mass density: 1426.9 ± 11 kg/m3
309.15 K, 101.33 kPa
  mass density: 1425.95 ± 11 kg/m3
310.15 K, 101.33 kPa
  mass density: 1425 ± 11 kg/m3
311.15 K, 101.33 kPa
  mass density: 1424.05 ± 11 kg/m3
312.15 K, 101.33 kPa
  mass density: 1423.1 ± 11 kg/m3
313.15 K, 100 kPa
  mass density: 1422.8 ± 11 kg/m3
313.15 K, 101.33 kPa
  mass density: 1422.15 ± 11 kg/m3
313.15 K, 250 kPa
  mass density: 1422.9 ± 11 kg/m3
313.15 K, 500 kPa
  mass density: 1423.1 ± 11 kg/m3
313.15 K, 1000 kPa
  mass density: 1423.5 ± 11 kg/m3
313.15 K, 2000 kPa
  mass density: 1424.3 ± 11 kg/m3
313.15 K, 5000 kPa
  mass density: 1426.6 ± 11 kg/m3
313.15 K, 10000 kPa
  mass density: 1430.4 ± 12 kg/m3
313.15 K, 15010 kPa
  mass density: 1434.1 ± 12 kg/m3
313.15 K, 20010 kPa
  mass density: 1437.7 ± 12 kg/m3
313.15 K, 25000 kPa
  mass density: 1441.2 ± 12 kg/m3
313.15 K, 30000 kPa
  mass density: 1444.7 ± 12 kg/m3
313.15 K, 34990 kPa
  mass density: 1448 ± 12 kg/m3
313.15 K, 40000 kPa
  mass density: 1451.4 ± 12 kg/m3
313.15 K, 45010 kPa
  mass density: 1454.6 ± 12 kg/m3
313.15 K, 50010 kPa
  mass density: 1457.9 ± 12 kg/m3
313.15 K, 55000 kPa
  mass density: 1461 ± 12 kg/m3
313.15 K, 60000 kPa
  mass density: 1464.1 ± 12 kg/m3
314.15 K, 101.33 kPa
  mass density: 1421.2 ± 11 kg/m3
315.15 K, 101.33 kPa
  mass density: 1420.25 ± 11 kg/m3
316.15 K, 101.33 kPa
  mass density: 1419.3 ± 11 kg/m3
317.15 K, 101.33 kPa
  mass density: 1418.36 ± 11 kg/m3
318.15 K, 101.33 kPa
  mass density: 1417.41 ± 11 kg/m3
319.15 K, 101.33 kPa
  mass density: 1416.47 ± 11 kg/m3
320.15 K, 101.33 kPa
  mass density: 1415.53 ± 11 kg/m3
321.15 K, 101.33 kPa
  mass density: 1414.58 ± 11 kg/m3
322.15 K, 101.33 kPa
  mass density: 1413.64 ± 11 kg/m3
323.15 K, 100 kPa
  mass density: 1413.5 ± 11 kg/m3
323.15 K, 101.33 kPa
  mass density: 1412.7 ± 11 kg/m3
323.15 K, 250 kPa
  mass density: 1413.6 ± 11 kg/m3
323.15 K, 500 kPa
  mass density: 1413.8 ± 11 kg/m3
323.15 K, 1010 kPa
  mass density: 1414.2 ± 11 kg/m3
323.15 K, 2000 kPa
  mass density: 1415 ± 11 kg/m3
323.15 K, 4990 kPa
  mass density: 1417.4 ± 11 kg/m3
323.15 K, 10010 kPa
  mass density: 1421.3 ± 11 kg/m3
323.15 K, 14990 kPa
  mass density: 1425.1 ± 11 kg/m3
323.15 K, 20010 kPa
  mass density: 1428.8 ± 12 kg/m3
323.15 K, 24990 kPa
  mass density: 1432.4 ± 12 kg/m3
323.15 K, 30010 kPa
  mass density: 1435.9 ± 12 kg/m3
323.15 K, 35010 kPa
  mass density: 1439.4 ± 12 kg/m3
323.15 K, 40000 kPa
  mass density: 1442.8 ± 12 kg/m3
323.15 K, 45000 kPa
  mass density: 1446.1 ± 12 kg/m3
323.15 K, 50000 kPa
  mass density: 1449.4 ± 12 kg/m3
323.15 K, 55000 kPa
  mass density: 1452.6 ± 12 kg/m3
323.15 K, 60000 kPa
  mass density: 1455.8 ± 12 kg/m3
324.15 K, 101.33 kPa
  mass density: 1411.76 ± 11 kg/m3
325.15 K, 101.33 kPa
  mass density: 1410.82 ± 11 kg/m3
326.15 K, 101.33 kPa
  mass density: 1409.88 ± 11 kg/m3
327.15 K, 101.33 kPa
  mass density: 1408.94 ± 11 kg/m3
328.15 K, 101.33 kPa
  mass density: 1408 ± 11 kg/m3
329.15 K, 101.33 kPa
  mass density: 1407.06 ± 11 kg/m3
330.15 K, 101.33 kPa
  mass density: 1406.12 ± 11 kg/m3
331.15 K, 101.33 kPa
  mass density: 1405.19 ± 11 kg/m3
332.15 K, 101.33 kPa
  mass density: 1404.25 ± 11 kg/m3
333.15 K, 100 kPa
  mass density: 1404.2 ± 11 kg/m3
333.15 K, 101.33 kPa
  mass density: 1403.32 ± 11 kg/m3
333.15 K, 250 kPa
  mass density: 1404.3 ± 11 kg/m3
333.15 K, 500 kPa
  mass density: 1404.5 ± 11 kg/m3
333.15 K, 1010 kPa
  mass density: 1404.9 ± 11 kg/m3
333.15 K, 2000 kPa
  mass density: 1405.8 ± 11 kg/m3
333.15 K, 4990 kPa
  mass density: 1408.2 ± 11 kg/m3
333.15 K, 10000 kPa
  mass density: 1412.3 ± 11 kg/m3
333.15 K, 14990 kPa
  mass density: 1416.2 ± 11 kg/m3
333.15 K, 20010 kPa
  mass density: 1420 ± 11 kg/m3
333.15 K, 25000 kPa
  mass density: 1423.6 ± 11 kg/m3
333.15 K, 30010 kPa
  mass density: 1427.3 ± 12 kg/m3
333.15 K, 34990 kPa
  mass density: 1430.8 ± 12 kg/m3
333.15 K, 40010 kPa
  mass density: 1434.3 ± 12 kg/m3
333.15 K, 45000 kPa
  mass density: 1437.6 ± 12 kg/m3
333.15 K, 50000 kPa
  mass density: 1441 ± 12 kg/m3
333.15 K, 54990 kPa
  mass density: 1444.3 ± 12 kg/m3
333.15 K, 60000 kPa
  mass density: 1447.5 ± 12 kg/m3
334.15 K, 101.33 kPa
  mass density: 1402.39 ± 11 kg/m3
335.15 K, 101.33 kPa
  mass density: 1401.45 ± 11 kg/m3
336.15 K, 101.33 kPa
  mass density: 1400.52 ± 11 kg/m3
337.15 K, 101.33 kPa
  mass density: 1399.59 ± 11 kg/m3
338.15 K, 101.33 kPa
  mass density: 1398.66 ± 11 kg/m3
339.15 K, 101.33 kPa
  mass density: 1397.73 ± 11 kg/m3
340.15 K, 101.33 kPa
  mass density: 1396.8 ± 11 kg/m3
341.15 K, 101.33 kPa
  mass density: 1395.87 ± 11 kg/m3
342.15 K, 101.33 kPa
  mass density: 1394.94 ± 11 kg/m3
343.15 K, 100 kPa
  mass density: 1395 ± 11 kg/m3
343.15 K, 101.33 kPa
  mass density: 1394.01 ± 11 kg/m3
343.15 K, 250 kPa
  mass density: 1395.1 ± 11 kg/m3
343.15 K, 500 kPa
  mass density: 1395.3 ± 11 kg/m3
343.15 K, 1000 kPa
  mass density: 1395.7 ± 11 kg/m3
343.15 K, 2000 kPa
  mass density: 1396.6 ± 11 kg/m3
343.15 K, 4990 kPa
  mass density: 1399.1 ± 11 kg/m3
343.15 K, 10010 kPa
  mass density: 1403.3 ± 11 kg/m3
343.15 K, 14910 kPa
  mass density: 1407.2 ± 11 kg/m3
343.15 K, 20000 kPa
  mass density: 1411.2 ± 11 kg/m3
343.15 K, 24990 kPa
  mass density: 1414.9 ± 11 kg/m3
343.15 K, 30010 kPa
  mass density: 1418.7 ± 11 kg/m3
343.15 K, 34990 kPa
  mass density: 1422.3 ± 11 kg/m3
343.15 K, 39990 kPa
  mass density: 1425.8 ± 12 kg/m3
343.15 K, 45000 kPa
  mass density: 1429.3 ± 12 kg/m3
343.15 K, 50000 kPa
  mass density: 1432.7 ± 12 kg/m3
343.15 K, 55000 kPa
  mass density: 1436.1 ± 12 kg/m3
343.15 K, 60000 kPa
  mass density: 1439.4 ± 12 kg/m3
344.15 K, 101.33 kPa
  mass density: 1393.09 ± 11 kg/m3

— the NIST ThermoML archive (doi:10.1016/j.fluid.2010.03.010)
